From patent US20220089609A1, “SUBSTITUTED QUINAZOLINONE DERIVATIVES AND THEIR USE AS POSITIVE ALLOSTERIC MODULATORS OF MGLUR4” (DOMAIN THERAPEUTICS, priority 2018, published 2022)

How the values were obtained:
human mGluR4 (hmGluR4) = molecular target: T1, human mGluR4 (hmGluR4) (Homo sapiens, UniProt Q14833); experiment: Calcium assay EC50 determination, positive allosteric modulator activity on hmGluR4 transiently over-expressed in HEK-293 cells; format: cell-based; conditions: PAM mode with EC20 glutamate; hmGluR4 in HEK-293 cells; intracellular calcium (Fluo4AM); read-out: mGluR4 positive allosteric modulator activity, half maximal effective concentration (EC50)
T1 construct: expressed in transfected cells; host or cells: HEK-293 cells, transient co-transfection by electroporation
How it was run: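 HEK-293 cells transiently co-transfected with hmGluR4, chimeric G protein and glutamate transporters; Fluo4AM calcium read (ex 485/em 525 nm) on FLIPR Tetra. Compound alone 10 min for agonism, then EC20 glutamate with 3 min recording for PAM activity, versus buffer or EC20 glutamate basal.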

T1 sequence (Q14833 33-912): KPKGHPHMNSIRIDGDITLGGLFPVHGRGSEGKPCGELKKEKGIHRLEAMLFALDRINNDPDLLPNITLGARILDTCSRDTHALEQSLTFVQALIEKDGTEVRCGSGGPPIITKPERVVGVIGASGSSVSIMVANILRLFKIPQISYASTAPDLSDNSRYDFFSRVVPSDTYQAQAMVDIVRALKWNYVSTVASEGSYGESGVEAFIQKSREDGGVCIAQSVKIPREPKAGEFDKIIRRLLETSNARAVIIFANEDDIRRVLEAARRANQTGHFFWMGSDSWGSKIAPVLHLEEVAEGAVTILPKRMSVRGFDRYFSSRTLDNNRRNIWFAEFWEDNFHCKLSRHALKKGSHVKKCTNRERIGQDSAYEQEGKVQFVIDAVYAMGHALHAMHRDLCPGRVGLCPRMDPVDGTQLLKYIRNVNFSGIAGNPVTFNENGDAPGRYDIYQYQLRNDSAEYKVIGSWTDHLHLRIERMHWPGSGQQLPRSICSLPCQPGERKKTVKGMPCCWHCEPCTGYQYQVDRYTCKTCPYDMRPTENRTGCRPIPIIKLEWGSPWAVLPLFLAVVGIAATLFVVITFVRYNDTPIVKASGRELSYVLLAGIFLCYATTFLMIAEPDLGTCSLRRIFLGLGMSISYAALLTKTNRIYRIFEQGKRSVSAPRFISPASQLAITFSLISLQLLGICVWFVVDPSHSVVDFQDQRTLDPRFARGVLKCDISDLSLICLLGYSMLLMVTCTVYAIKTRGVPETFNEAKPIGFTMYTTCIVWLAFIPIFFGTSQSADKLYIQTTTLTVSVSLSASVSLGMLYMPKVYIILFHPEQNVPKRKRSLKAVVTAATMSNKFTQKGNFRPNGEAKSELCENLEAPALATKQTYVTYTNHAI

Structure (SMILES) | EC50 (human mGluR4 (hmGluR4)) [µM] | melting point [°C]
COCCOc1ccc2nc(-c3cc4sccc4cn3)[nH]c(=O)c2c1 [Compound 36, 6-(2-Methoxy-ethoxy)-2-thieno[3,2-c]pyridin-6-yl-3H-quinazolin-4-one] | > 10 | 209 to 213
Cl.O=c1[nH]c(-c2cc3sccc3cn2)nc2ccc(OCCCc3cccnc3)cc12 [Compound 37, 6-(3-Pyridin-3-yl-propoxy)-2-thieno[3,2-c]pyridin-6-yl-3H-quinazolin-4-one hydrochloride] | 0.1 to 1 | 149 to 154
CC(=O)N1CCC(COc2ccc3nc(-c4cc5ccsc5cn4)[nH]c(=O)c3c2)CC1 [Compound 47, 6-(1-Acetyl-piperidin-4-ylmethoxy)-2-thieno[2,3-c]pyridin-5-yl-3H-quinazolin-4-one] | 0.1 to 1 | > 250
CCC(=O)N1CCC(COc2ccc3nc(-c4cc5ccsc5cn4)[nH]c(=O)c3c2)CC1 [Compound 48, 6-(1-Propionyl-piperidin-4-ylmethoxy)-2-thieno[2,3-c]pyridin-5-yl-3H-quinazolin-4-one] | 0.1 to 1 | 234 to 239
CS(=O)(=O)c1ccc(CCCOc2ccc3nc(-c4cc5ccsc5cn4)[nH]c(=O)c3c2)cc1 [Compound 60, 6-[3-(4-Methanesulfonyl-phenyl)-propoxy]-2-thieno[2,3-c]pyridin-5-yl-3H-quinazolin-4-one] | 0.1 to 1 | 236 to 237
Cl.O=c1[nH]c(-c2cc3ccsc3cn2)nc2ccc(OCCCc3cnccn3)cc12 [Compound 61, 6-(3-Pyrazin-2-yl-propoxy)-2-thieno[2,3-c]pyridin-5-yl-3H-quinazolin-4-one hydrochloride] | 0.1 to 1 | 230 to 240
COc1cnccc1CCCOc1ccc2nc(-c3cc4ccsc4cn3)[nH]c(=O)c2c1.Cl [Compound 62, 6-[3-(3-Methoxy-pyridin-4-yl)-propoxy]-2-thieno[2,3-c]pyridin-5-yl-3H-quinazolin-4-one hydrochloride] | 0.1 to 1 | 250 to 251
O=c1[nH]c(-c2cc3ccsc3cn2)nc2ccc(OCCCc3cocn3)cc12 [Compound 64, 6-(3-Oxazol-4-yl-propoxy)-2-thieno[2,3-c]pyridin-5-yl-3H-quinazolin-4-one] | 0.1 to 1 | 197 to 199
Cl.O=c1[nH]c(-c2cc(C(F)(F)F)ccn2)nc2ccc(OCCCc3ccncc3)nc12 [Compound 67, 6-(3-Pyridin-4-yl-propoxy)-2-(4-trifluoromethyl-pyridin-2-yl)-3H-pyrido[3,2-d]pyrimidin-4-one hydrochloride] | 0.1 to 1 | > 250
Cc1cc(O[C@@H](C)C2CCOCC2)cc2c(=O)[nH]c(-c3cc4ccsc4cn3)nc12 [Compound 110-S, S-8-Methyl-6-[1-(tetrahydro-pyran-4-yl)-ethoxy]-2-thieno[2,3-c]pyridin-5-yl-3H-quinazolin-4-one] | ≤ 0.1 | 150 to 180
Cc1cc(O[C@@H](C)C2CCOCC2)cc2c(=O)[nH]c(-c3cc(C(F)(F)F)ccn3)nc12 [Compound 111-S, S-8-Methyl-6-[1-(tetrahydro-pyran-4-yl)-ethoxy]-2-(4-trifluoromethyl-pyridin-2-yl)-3H-quinazolin-4-one] | 0.1 to 1 | 120 to 132
Cc1cc(OCC2(F)CCOC2)cc2c(=O)[nH]c(-c3cc(C(F)(F)F)ccn3)nc12 (centres unmarked) [Compound 112, 6-[(3-fluorotetrahydrofuran-3-yl)methoxy]-8-methyl-2-[4-(trifluoromethyl)-2-pyridyl]-3H-quinazolin-4-one] | ≤ 0.1 | 188 to 195
CCC(=O)N1CC(Oc2cc(C)c3nc(-c4cc5ccsc5cn4)[nH]c(=O)c3c2)C1 [Compound 116, 8-methyl-6-(1-propanoylazetidin-3-yl)oxy-2-thieno[2,3-c]pyridin-5-yl-3H-quinazolin-4-one] | 0.1 to 1 | 230 to 240
Cc1cc(OC2CCC(=O)N(C)C2)cc2c(=O)[nH]c(-c3cc4cccn4cn3)nc12 (centres unmarked) [Compound 118, 8-Methyl-6-[(1-methyl-6-oxo-3-piperidyl)oxy]-2-pyrrolo[1,2-c]pyrimidin-3-yl-3H-quinazolin-4-one] | ≤ 0.1 | 220 to 230
Cc1cc(N2CCC3(CCOCC3)CC2)cc2c(=O)[nH]c(-c3cc4sccc4cn3)nc12 [Compound 120, 8-Methyl-6-(3-oxa-9-azaspiro[5.5]undecan-9-yl)-2-(thieno[3,2-c]pyridin-6-yl)quinazolin-4(3H)-one] | ≤ 0.1 | > 250
Cc1cc(CCN2CCCOCC2)cc2c(=O)[nH]c(-c3cnc4ccsc4c3)nc12.Cl [Compound 122, 8-Methyl-6-(2-[1,4]oxazepan-4-yl-ethyl)-2-thieno[3,2-b]pyridin-6-yl-3H-quinazolin-4-one hydrochloride] | ≤ 0.1 | > 250

Structure (SMILES) | EC50 (human mGluR4 (hmGluR4)) [µM] | melting point [°C]
Cc1cc(CCN2CCOCC2)cc2c(=O)[nH]c(-c3cc4sccc4cn3)nc12.Cl [Compound 123, 8-Methyl-6-(2-morpholin-4-yl-ethyl)-2-thieno[3,2-c]pyridin-6-yl-3H-quinazolin-4-one hydrochloride] | ≤ 0.1 | > 250
Cc1cc(CN2CCOCC2)cc2c(=O)[nH]c(-c3cc4cccn4cn3)nc12.Cl [Compound 125, 8-Methyl-6-(morpholinomethyl)-2-pyrrolo[1,2-c]pyrimidin-3-yl-3H-quinazolin-4-one hydrochloride] | ≤ 0.1 | > 250
Cc1cc(CC(=O)N2CCOCC2)cc2c(=O)[nH]c(-c3cc4ccsc4cn3)nc12 [Compound 127, 8-Methyl-6-(2-morpholino-2-oxo-ethyl)-2-thieno[2,3-c]pyridin-5-yl-3H-quinazolin-4-one] | 0.1 to 1 | > 250
Cc1cc(CCN2CCCCC2)cc2c(=O)[nH]c(-c3cnc4sccc4c3)nc12.Cl [Compound 128, 8-Methyl-6-(2-piperidin-1-yl-ethyl)-2-thieno[2,3-b]pyridin-5-yl-3H-quinazolin-4-one hydrochloride] | 1 to 10 | > 250
Cc1cc(OC2CCC(=O)N(C)C2)cc2c(=O)[nH]c(-c3cc4sccc4cn3)nc12 (centres unmarked) [Compound 129, 8-Methyl-6-(1-methyl-6-oxo-piperidin-3-yloxy)-2-thieno[3,2-c]pyridin-6-yl-3H-quinazolin-4-one] | ≤ 0.1 | 90 to 110
Cc1cc(OCC2CCN(C)C(=O)C2)cc2c(=O)[nH]c(-c3cc4ccsc4cn3)nc12 (centres unmarked) [Compound 130, 8-Methyl-6-(1-methyl-2-oxo-piperidin-4-ylmethoxy)-2-thieno[2,3-c]pyridin-5-yl-3H-quinazolin-4-one] | ≤ 0.1 | > 250
Cc1cc(CN2CCCCC2)cc2c(=O)[nH]c(-c3cc4ccsc4cn3)nc12.Cl [Compound 131, 8-Methyl-6-(1-piperidylmethyl)-2-thieno[2,3-c]pyridin-5-yl-3H-quinazolin-4-one hydrochloride] | 0.1 to 1 | 233 to 240
Cc1cc(CN2CCCC2)cc2c(=O)[nH]c(-c3cc4ccsc4cn3)nc12.Cl [Compound 133, 8-Methyl-6-(pyrrolidin-1-ylmethyl)-2-thieno[2,3-c]pyridin-5-yl-3H-quinazolin-4-one hydrochloride] | 1 to 10 | > 250
Cc1cc(CC(=O)N2CCOCC2)cc2c(=O)[nH]c(-c3cc4cccn4cn3)nc12 [Compound 134, 8-Methyl-6-(2-morpholino-2-oxo-ethyl)-2-pyrrolo[1,2-c]pyrimidin-3-yl-3H-quinazolin-4-one] | ≤ 0.1 | 254 to 256
Cc1cc(OC2CCC(=O)N(C)C2)cc2c(=O)[nH]c(-c3cc(C(F)(F)F)ccn3)nc12 (centres unmarked) [Compound 136, 8-Methyl-6-(1-methyl-6-oxo-piperidin-3-yloxy)-2-(4-trifluoromethyl-pyridin-2-yl)-3H-quinazolin-4-one] | ≤ 0.1 | > 250
Cc1cc(CN2CCSCC2)cc2c(=O)[nH]c(-c3cc4ccsc4cn3)nc12.Cl [Compound 137, 8-Methyl-2-thieno[2,3-c]pyridin-5-yl-6-(thiomorpholinomethyl)-3H-quinazolin-4-one hydrochloride] | ≤ 0.1 | > 250
Cc1cc(CC(=O)N2CCCOCC2)cc2c(=O)[nH]c(-c3cc4ccsc4cn3)nc12 [Compound 138, 8-Methyl-6-[2-(1,4-oxazepan-4-yl)-2-oxo-ethyl]-2-thieno[2,3-c]pyridin-5-yl-3H-quinazolin-4-one] | ≤ 0.1 | 215 to 220
Cc1cc(CN2CCCC2)cc2c(=O)[nH]c(-c3cc4sccc4cn3)nc12.Cl [Compound 139, 8-Methyl-6-(pyrrolidin-1-ylmethyl)-2-thieno[3,2-c]pyridin-6-yl-3H-quinazolin-4-one hydrochloride] | 1 to 10 | > 250
Cc1cc(O[C@H]2CCN(C(=O)OCc3ccccc3)C2)cc2c(=O)[nH]c(-c3cc4sccc4cn3)nc12 [Compound 141, Benzyl (3S)-3-[(8-methyl-4-oxo-2-thieno[3,2-c]pyridin-6-yl-3H-quinazolin-6-yl)oxy]pyrrolidine-1-carboxylate] | 0.1 to 1 | 224 to 227
Cc1cc(CCN2CCN(C)C(=O)C2)cc2c(=O)[nH]c(-c3cc4ccsc4cn3)nc12.Cl [Compound 142, 8-Methyl-6-[2-(4-methyl-3-oxo-piperazin-1-yl)ethyl]-2-thieno[2,3-c]pyridin-5-yl-3H-quinazolin-4-one hydrochloride] | 0.1 to 1 | > 250
